The values below come from article PMC11168191, “Systemic Treatment with siRNA Targeting Gamma-Secretase Activating Protein Inhibits Amyloid-β Accumulation in Alzheimer’s Disease” (Biomaterials Research, 2024).

One data set deals with SOD1. The data set can be described thus: SOD1 gene silencing in mouse organs and brain regions, qPCR. The conditions noted are these: 400 pmol siSOD1, 100 μg peptide, tail vein, daily for 3 d, n = 8. It is filed as in vivo, mice. As to the method:
All procedures were performed in compliance with guidelines and protocols approved by the Institutional Animal Care and Use Committee (IACUC) of Hanyang University. The Balb/c mice were used to test the in vivo delivery of complexed particles to the brain. To ascertain ligand-receptor-mediated delivery of diLep9R3LC:siRNA, the leptin-receptor-deficient (db/db, Jackson Laboratory, ME) strains were utilized. Further, to study therapeutic efficacy of siRNA in AD, 7-month-old male 3xTg (B6;129-Psen1tm1Mpm Tg (APPSwe,tauP301L)1Lfa/Mmjax) mice (Jackson Laboratory, ME) were used. These mice show AD-like pathological and physiological characteristics with respect to formation of Aβ plaques and tangled tau as well as abnormal behaviors. […] In all experiments, a group of control mice (n = 4) were also injected with DPBS (pH 7.4).
For quantitative polymerase chain reaction (qPCR), total RNA was extracted from N2a cells 24 h posttransfection and homogenized brain samples using the RNAiso kit (Takara, Kyoto, Japan). The RNA was quantified with SYBR premix Ex Taq perfect real time (Takara, Kyoto, Japan) with qPCR primers. In all cases, relative gene expression was calculated in comparison to normalized target mRNA levels in nontreated groups. […] All primers were synthesized from Cosmogenetech (Seoul, Korea), and sequences are depicted below.

The test system of data set [1] is N2a cells. Put plainly: Cytotoxicity, Cell Counting Kit-8 assay. The conditions noted are these: 24 h posttransfection, Cell Counting Kit-8, at tested weight ratio, with siSOD1 (Fig. 1G).
The target in data set [2] is T1, leptin receptor (Homo sapiens, UniProt P48357).
T1 construct: purchased R&D Systems
T1 sequence (P48357 22-1165): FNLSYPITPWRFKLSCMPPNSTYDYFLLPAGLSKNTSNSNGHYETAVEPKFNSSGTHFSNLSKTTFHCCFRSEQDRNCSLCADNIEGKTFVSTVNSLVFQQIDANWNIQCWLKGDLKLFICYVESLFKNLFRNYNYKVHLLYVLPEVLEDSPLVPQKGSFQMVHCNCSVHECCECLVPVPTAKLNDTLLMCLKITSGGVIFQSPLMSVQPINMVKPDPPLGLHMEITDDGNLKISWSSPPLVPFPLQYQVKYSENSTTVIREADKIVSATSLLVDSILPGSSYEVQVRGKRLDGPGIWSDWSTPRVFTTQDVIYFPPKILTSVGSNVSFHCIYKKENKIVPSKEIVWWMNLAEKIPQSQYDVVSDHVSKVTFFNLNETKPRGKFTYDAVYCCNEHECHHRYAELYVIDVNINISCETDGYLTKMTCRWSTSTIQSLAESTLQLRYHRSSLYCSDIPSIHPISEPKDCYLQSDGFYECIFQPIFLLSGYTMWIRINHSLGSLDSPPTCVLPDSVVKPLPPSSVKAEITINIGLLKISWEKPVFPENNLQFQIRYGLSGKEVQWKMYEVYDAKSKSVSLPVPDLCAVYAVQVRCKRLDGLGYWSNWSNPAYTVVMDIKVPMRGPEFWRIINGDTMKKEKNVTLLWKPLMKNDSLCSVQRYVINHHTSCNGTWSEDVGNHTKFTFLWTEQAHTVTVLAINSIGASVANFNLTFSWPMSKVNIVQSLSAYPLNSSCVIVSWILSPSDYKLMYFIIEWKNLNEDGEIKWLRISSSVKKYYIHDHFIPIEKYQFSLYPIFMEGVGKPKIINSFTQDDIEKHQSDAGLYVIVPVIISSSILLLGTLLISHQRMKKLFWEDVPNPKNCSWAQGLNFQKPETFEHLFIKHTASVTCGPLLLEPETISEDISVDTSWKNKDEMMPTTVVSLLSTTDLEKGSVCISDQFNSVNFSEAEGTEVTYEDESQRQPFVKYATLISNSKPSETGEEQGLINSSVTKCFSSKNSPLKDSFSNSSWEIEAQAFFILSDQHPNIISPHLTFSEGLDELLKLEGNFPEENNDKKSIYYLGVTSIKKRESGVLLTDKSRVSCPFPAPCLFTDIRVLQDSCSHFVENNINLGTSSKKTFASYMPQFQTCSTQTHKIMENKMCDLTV
The data set can be described thus: SPR biosensor binding of peptide to immobilized leptin receptor. To be noted: for kon: read-out: association constant (Ka). As to the method:
The direct binding of diLep9R3LC or Lep9R3LC to the target was evaluated using a dual-channel surface plasmon resonance (SPR) instrument (Reichert SR7500DC system, Depew, NY). The process of immobilizing the leptin receptor protein (R&D Systems, Minneapolis, MN) onto the sensor chip surface was accomplished using free amine coupling through an 1-ethyl-3-(3-dimethylaminopropyl) carbodiimide hydrochloride (EDC)/N-hydroxysuccinimide (NHS) reaction. The process of the EDC/NHS reaction involves injecting a mixture containing 0.1 M EDC and 0.05 M NHS. Subsequently, the remaining activated carboxyl groups were quenched with 1 M ethanolamine at pH 6.0. All dilutions of the working peptides were prepared in the running buffer (PBS with 1% DMSO) and injected for 3 min (association time) at a flow rate of 50 μl/min followed by a dissociation phase of 3 min. Nonspecific background binding was subtracted from each sensogram using SPR_V4017 Data Acquisition and Alignment Program (Reichert, Depew, NY). Binding rates and constants were independent of flow rate over a wide range. Best-fit kinetic parameters were obtained by global fitting analysis using Scrubber2 (Biologic Software, Australia).
For orientation: Surface plasmon resonance follows binding to a sensor surface in real time, without labels.

In data set [3] the test system is N2a cells.
Data set [4] deals with T2, leptin receptor (Mus musculus, UniProt P48356).
T2 chain: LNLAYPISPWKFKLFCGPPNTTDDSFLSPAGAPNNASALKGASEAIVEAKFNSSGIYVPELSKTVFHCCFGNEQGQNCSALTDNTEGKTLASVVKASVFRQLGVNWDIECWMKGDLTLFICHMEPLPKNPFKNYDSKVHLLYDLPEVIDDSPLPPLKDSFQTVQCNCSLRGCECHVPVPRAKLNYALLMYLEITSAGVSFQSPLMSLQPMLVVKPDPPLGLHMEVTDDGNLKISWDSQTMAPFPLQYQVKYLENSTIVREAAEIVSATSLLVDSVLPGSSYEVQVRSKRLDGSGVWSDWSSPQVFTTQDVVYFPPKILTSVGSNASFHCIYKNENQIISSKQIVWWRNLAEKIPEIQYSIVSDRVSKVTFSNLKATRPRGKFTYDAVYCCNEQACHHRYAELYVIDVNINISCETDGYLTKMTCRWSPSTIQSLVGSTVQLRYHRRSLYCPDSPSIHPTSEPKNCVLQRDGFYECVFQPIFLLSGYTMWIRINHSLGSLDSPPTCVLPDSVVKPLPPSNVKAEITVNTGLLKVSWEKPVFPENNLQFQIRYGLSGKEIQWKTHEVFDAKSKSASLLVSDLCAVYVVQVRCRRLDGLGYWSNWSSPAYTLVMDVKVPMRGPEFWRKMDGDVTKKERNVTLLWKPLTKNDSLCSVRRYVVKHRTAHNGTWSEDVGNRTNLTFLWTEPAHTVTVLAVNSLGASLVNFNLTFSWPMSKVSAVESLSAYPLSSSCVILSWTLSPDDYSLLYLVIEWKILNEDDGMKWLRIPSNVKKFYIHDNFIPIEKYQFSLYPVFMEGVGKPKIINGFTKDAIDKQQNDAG
The data set can be described thus: SPR.

Read-outs that look alike come from different tables or passages of the source. Bridge positions count the residues as written; N and C are the ends. Ends that are not written are not given here. I, II: the chains in the order shown.

In the case of “EVGQSDYSSYARTSIRASLTFGGGGRRRRRRRRRLLLC [scrambled9R, scrambled peptide, nontargeting control]”, the “SOD1 silencing, brain” value in the data set with SOD1 is recorded as “not when used with scrambled peptide”.

With “I: YQQVLTSLPSQNVLQIANDLENLRDLLHLLGGGGRRRRRRRRRLLLC / II: YQQVLTSLPSQNVLQIANDLENLRDLLHLLGGGGRRRRRRRRRLLLC (disulfide I:47-II:47) [diLep9R3LC]”, in the data set on N2a cells [1], the cytotoxicity entry is “did not show any cytotoxicity”. Besides, the kon at leptin receptor [2] is 3300 M⁻¹ s⁻¹.

In the case of “YQQVLTSLPSQNVLQIANDLENLRDLLHLLGGGGRRRRRRRRRLLLC [Lep9R3LC]”, the kon on leptin receptor [2] (SPR Reichert SR7500DC, amine-coupled receptor, running buffer PBS with 1% DMSO, 3 min association, 3 min dissociation, 50 μl/min, global fit Scrubber2) came to 1100 M⁻¹ s⁻¹. For the same molecule, the Kd at leptin receptor [2] (SPR, leptin receptor immobilized, PBS with 1% DMSO, global fit, read-out: binding affinity (KD) (Kd/Ka)) came to 1.38 µM. The cytotoxicity result with N2a cells [3] is given as “did not show any cytotoxicity”.

B1: Lep9R3LC (peptide)
chain: YQQVLTSLPSQNVLQIANDLENLRDLLHLLGGGGRRRRRRRRRLLLC
Take B1: the Kd in the data set with leptin receptor [4] was found to be 1.38 µM.

B2: diLep9R3LC (peptide)
chain: YQQVLTSLPSQNVLQIANDLENLRDLLHLLGGGGRRRRRRRRRLLLC
modifications: also: disulfide-linked dimer via C-terminal Cys
On to B2, for which the Kd with leptin receptor [4] came out at 0.462 µM.
